Laboratory results reported in publication PMC7026080, “Phenotypic high-throughput screening platform identifies novel chemotypes for necroptosis inhibition” (Cell Death Discovery, 2020).

Experiments:
BV2 cells = assay: Necroptosis protection in BV2 cells (Z-VAD-FMK), 24 h; type: cell-based, murine; details: compounds at 10 μM, 25 μM Z-VAD-FMK
Protocol: (§1) Necroptosis inhibition properties were further examined using two additional cellular models of regulated necrosis. First, in human adenocarcinoma HT29 cells, and then in immortalized murine microglial BV2 cells, where we co-incubated a mixture of human or murine TNF-α, Smac mimetic […], pan-caspase inhibitor Z-VAD-FMK[29] or Z-VAD-FMK alone, and tested compounds at 10 μM for 24 h. […] In parallel, preliminary data for compound liver toxicity was extrapolated using HepG2 cells.
(§2) Fig. 3 Secondary-stage cascade for hit validation and compound refinement for further studies. a Compound ability to prevent necroptosis execution in HT29 cells co-incubated with 20 ng/mL hTNF-α (T) together with 250 nM Smac mimetic BV6 (S) and […] Z-VAD-FMK (Z), and selected compounds at 10 μM for 24 h. b Selected compound ability to prevent necroptosis execution in BV2 cells co-incubated with 25 μM Z-VAD-FMK (Z) and compounds at 10 μM for 24 h. c Selected compound toxicity evaluation in HepG2 cells incubated with test compounds at 100 and 50 μM for 24 h. Data represent mean values ± SEM of three independent experiments normalized to untreated control. Cell viability was assessed using a luminescence-based readout for AK release and ATP production, and a colorimetric-based readout for LDH release and MTS metabolism. ns, not significant; *p < 0.05, ***p < 0.001.
(§3) Cell treatments and viability assays. […]

[1] = test system: necroptosis proteins in liver tissue; assay: p-MLKL/MLKL and p-RIPK3/RIPK3 immunoblot in liver tissue of SIRS mice; type: in vivo, mouse; details: compared with mTNF-α alone; 5 mg/kg i.v.
Protocol: Representative blots and quantification of p-RIPK3/RIPK3 and p-MLKL/MLKL ratios in fold-change from control. Blots were normalized to endogenous β-actin.
Further details are provided as Supplementary Information.
Animal studies, injections and monitoring. Male C57BL/6J mice with 18-26 g (Charles River Laboratories International, Inc., Wilmington, MA, USA) were used at the age of 8-14 weeks. Five to seven animals were included in each experimental group. All animal experiments were carried out with the permission of local animal ethical committee in accordance with the EU Directive (2010/63/EU), Portuguese laws (DL113/2013, 2880/2015, 260/2016) and all relevant legislations. Animals received humane care in a temperature-controlled environment with a 12 h light-dark cycle and ad libitum access to pelleted chow and water, complying with the Institute’s guidelines, and as outlined in the “Guide for the Care and Use of Laboratory Animals” prepared by the National Academy of Sciences and published by the National Institutes of Health (NIH publication 86-23 revised 1985). […] Nec-1 was diluted as follows (v/v): 48% PBS 1X, 17% DMSO and 35% PEG 400. […] All injections were administered intravenously (i.v.) in 100 µL volume each.

MDR1 = assay: MDCK-MDR1 cell-based permeability assay; type: in vitro ADME; details: dog
HT29 cells = assay: Necroptosis protection in HT29 cells (TNF-α + Smac mimetic + Z-VAD-FMK), 24 h; type: cell-based, human; details: compounds at 10 μM, hTNF-α + Smac mimetic + Z-VAD-FMK
Protocol: as §1, §2, §3

[2] = Rat hepatic clearance (in vitro); type: in vitro ADME

Compound: CN1C(=O)C(Cc2c[nH]c3ccccc23)NC1=S (stereo not drawn) [Nec-1, necrostatin-1]
- Protection from necroptosis execution in BV2 cells (BV2 cells): complete protection against necroptosis execution
- p-MLKL/MLKL ratio in mouse liver tissue [1]: decreased
- p-RIPK3/RIPK3 ratio in mouse liver tissue [1]: decreased
- efflux ratio (MDR1): 0.45
- Protection from necroptosis in HT29 cells (membrane integrity by AK and LDH release, ATP levels) (HT29 cells): completely rescued membrane integrity and ensured metabolic cell viability

Compound: O=C(c1cnn(Cc2ccccc2)c1)N1CCOc2ccccc2C1 [SN-6109]
- Rat hepatic clearance (in vitro) rate [2]: 87 μL/min/1E6
